# Reference: US20110256579A1, “Method for Verifying and/or Identifying Hormonally Effective Substances” (TECHNISCHE UNIVERSITAET DRESDEN, priority 2008, published 2011)
# Test system: surface receptors of the a-yeast strain
# Test: Shmoo effect positive control with purified α-factor
# Assay type: cell-based, Saccharomyces cerevisiae
# Settings: BY4741 MATa p423GPD-AR1, p426PGK-MFα1; purified α-factor added
# Experimental: The recognition of the α-factor (yeast pheromone) by surface receptors effects inter alia a directed growth (shmoo effect) of the yeast cells toward the source of the pheromone. Under natural conditions this serves for subsequent fusion with the yeast cell of the opposite mating type.
# To the positive control purified α-factor is added. […] Based on this control, the androgen-independent induction of the yeast cells can be checked.
substance,measurement,value
α-factor,directed growth (shmoo effect) of the yeast cells,Directed growth of the yeast cells is observed
